System: 616215-338-R-J1-PDC spheroids with HUVEC/MSC, viability
Assay: Anticancer human tumor 616215-338-R-J1-PDC patient-derived colon adenocarcinoma cell line growth inhibition [PI3K]
Conditions: for IC50: curve of first compound; for viability, T/C: stronger effect = lower value
Text: Combinatorial screen of targeted agents with the PI3K inhibitors inavolisib, alpelisib, duvelisib, and copanlisib in multi-cell type tumor spheroids
A high-throughput screen of multi-cell type tumor spheroids was designed to identify active combinations of targeted small molecules and PI3K pathway inhibitors. Complex spheroids include a stromal component modeled by human endothelial cells (HUVEC) and fibroblasts modeled by human mesenchymal stem cells (MSCs). The concentration ranges selected for each drug and investigational agent were based upon clinically achievable concentrations if the clinical Cmax of the agent was known.
Compounds. The drugs and investigational agents: inavolisib (NSC800729), alpelisib (NSC765974), duvelisib (NSC772469), copanlisib (NSC816437), ipatasertib (NSC767898), afuresertib (NSC778305), talazoparib (NSC767125), sapanisertib (NSC764658), selumetinib (NSC741078), tovorafenib (DAY101, NSC766906), vemurafenib (NSC761431), ravoxertinib (NSC781343), sotorasib (NSC818433), MRTX1133 (NSC 836407), abemaciclib (NSC 768073), palbociclib (NSC758247), venetoclax (NSC 766270), SY5609 (NSC837396), enzalutamide (NSC755605), and darolutamide (NSC825331), were obtained from the National Cancer Institute (NCI) Developmental Therapeutics Program Chemical Repository. The FDA-approved anticancer drug set is available from the NCI Developmental Therapeutics Program. […] The stock solutions were prepared in dimethyl sulfoxide (DMSO, Sigma-Aldrich, St. Louis, MO, cat. D2650) at 800-fold the tested concentration and stored at -70 degrees C prior to their use. All drugs and investigational agents were tested over a range starting from a high concentration at or near the clinical Cmax and decreasing in half-log increments. If the clinical Cmax for an agent had not been determined, the highest concentration tested was 10 microM.
Cell Culture. All cells were maintained in an incubator at 37 degrees C and 5% CO2 with 95% humidity. The PDC lines were cultured according to standard operating procedures established by the NCI PDMR (https://pdmr.cancer.gov/sops/default.htm). All PDCs were thawed and cultured in Matrigel-coated flasks prepared with a working solution of 1X Ham's F-12 nutrient mix, without supplementation (Invitrogen, Waltham, MA, cat. 11765054), 100 U/mL penicillin-streptomycin (Invitrogen, cat. 15140122), and 2.5% Matrigel (Corning Inc., Corning, NY, cat. 354248) for the first three passages. The 354836-022-R-J1-PDC, 475296-252-R-J1-PDC, and 997726-040-R-J2-PDC lines were cultured in 6A media, which includes advanced DMEM/F-12 (Thermo Fisher Scientific, cat. 12634028), 10 mM HEPES (Thermo Fisher Scientific, cat. 15630080), 1X GlutaMAX supplement (Thermo Fisher Scientific, cat. 35050061), 0.1 mg/mL primocin (InvivoGen, San Diego, CA, cat. ant-pm-2), 10% defined fetal bovine serum, heat inactivated (HyClone Laboratories Inc., Logan, UT, cat. SH30070.03HI), 50% L-WRN conditioned media (ATCC, cat. CRL-3276), 1.25 mM N-Acetyl-L-cysteine (Sigma-Aldrich, cat. A9165), 10 mM nicotinamide (Sigma-Aldrich, cat. N0636), 1X B-27 supplement (Thermo Fisher Scientific, cat. 17504044), 1X N-2 supplement (Thermo Fisher Scientific, cat. 17502048), and 10 microM Y-27632 dihydrochloride (Tocris Bioscience, Bristol, United Kingdom, cat. 1254). The 624824-186-R-J2-PDC line was cultured in 6C/Colon 1B media, which includes all 6A media components plus 50 ng/mL human EGF recombinant protein (Thermo Fisher Scientific, cat. PHG0311). […]
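Further: spheroids exposed to agents for seven days before the viability read.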

Cn1cnc2c(F)c(Nc3ccc(Br)cc3Cl)c(C(=O)NOCCO)cc21 + Cc1nc(NC(=O)N2CCCC2C(N)=O)sc1-c1ccnc(C(C)(C)C(F)(F)F)c1
IC50 (second compound 0.0316 µM): 1010 nM | IC50 (second compound 0.1 µM): 1590 nM | IC50 (second compound 0.316 µM): 1110 nM | IC50 (second compound 1 µM): 725 nM | IC50 (second compound 3.16 µM): 423 nM | IC50 (second compound 10 µM): 379 nM | viability, T/C (second compound 0.0316 µM, first compound 0.00949 µM): 107% | viability, T/C (second compound 0.0316 µM, first compound 0.03 µM): 94.8% | viability, T/C (second compound 0.0316 µM, first compound 0.0949 µM): 99.2% | viability, T/C (second compound 0.0316 µM, first compound 0.3 µM): 79.9% | viability, T/C (second compound 0.0316 µM, first compound 0.949 µM): 50.1% | viability, T/C (second compound 0.0316 µM, first compound 3 µM): 44.3% | viability, T/C (second compound 0.1 µM, first compound 0.00949 µM): 111% | viability, T/C (second compound 0.1 µM, first compound 0.03 µM): 91.3% | viability, T/C (second compound 0.1 µM, first compound 0.0949 µM): 98.2% | viability, T/C (second compound 0.1 µM, first compound 0.3 µM): 91.8% | viability, T/C (second compound 0.1 µM, first compound 0.949 µM): 55.3% | viability, T/C (second compound 0.1 µM, first compound 3 µM): 43.4% | viability, T/C (second compound 0.316 µM, first compound 0.00949 µM): 109% | viability, T/C (second compound 0.316 µM, first compound 0.03 µM): 101% | viability, T/C (second compound 0.316 µM, first compound 0.0949 µM): 77.4% | viability, T/C (second compound 0.316 µM, first compound 0.3 µM): 73.1% | viability, T/C (second compound 0.316 µM, first compound 0.949 µM): 50.1% | viability, T/C (second compound 0.316 µM, first compound 3 µM): 36.9% | viability, T/C (second compound 1 µM, first compound 0.00949 µM): 99.7% | viability, T/C (second compound 1 µM, first compound 0.03 µM): 95.6% | viability, T/C (second compound 1 µM, first compound 0.0949 µM): 83.4% | viability, T/C (second compound 1 µM, first compound 0.3 µM): 75.8% | viability, T/C (second compound 1 µM, first compound 0.949 µM): 39.2% | viability, T/C (second compound 1 µM, first compound 3 µM): 36.5% | viability, T/C (second compound 3.16 µM, first compound 0.00949 µM): 106% | viability, T/C (second compound 3.16 µM, first compound 0.03 µM): 94.5% | viability, T/C (second compound 3.16 µM, first compound 0.0949 µM): 79.3% | viability, T/C (second compound 3.16 µM, first compound 0.3 µM): 55.4% | viability, T/C (second compound 3.16 µM, first compound 0.949 µM): 36.4% | viability, T/C (second compound 3.16 µM, first compound 3 µM): 26.2% | viability, T/C (second compound 10 µM, first compound 0.00949 µM): 101% | viability, T/C (second compound 10 µM, first compound 0.03 µM): 86.3% | viability, T/C (second compound 10 µM, first compound 0.0949 µM): 94% | viability, T/C (second compound 10 µM, first compound 0.3 µM): 54.1% | viability, T/C (second compound 10 µM, first compound 0.949 µM): 21.9% | viability, T/C (second compound 10 µM, first compound 3 µM): 1.33%

— PubChem BioAssay AID1963978 (Molecular Pharmacology Branch, DTP, NCI, 2024)
